We go through one compound from PMC4912218, “Targeted metabolomics of Gammarus pulex following controlled exposures to selected pharmaceuticals in water” (The Science of the Total Environment, 2016).

≈ marks a conversion by molar mass, not a printed value.

The nature of one series: in vivo. To be noted: in vivo. Here is the method: (§1) From these toxicity profiles the NOAEL and the LOAEL were determined. Exposure experiments were performed in Pyrex® beakers, each containing 200 mL of AFW at 15 °C and ten adult animals (> 5 mg wet weight, ww). Live/dead animals were counted after 24 h by gently prodding and observing movement of appendages. The pharmaceutical concentrations tested were in the range of 0.01 to 250 mg L^− 1. […] Concentrations where 100, 50 and 0% of the animals died were repeated in duplicate or triplicate.

A further series concerns Gammarus pulex. Put plainly: in vivo. To be noted: G. pulex. The procedure:
as §1

Consider `Oc1cc(Cl)ccc1Oc1ccc(Cl)cc1Cl` [Triclosan], for which the LC50 at 24 h in the series “in vivo” stood at 0.57 µg/mL (≈ 1.97 µM). Also, in the series with Gammarus pulex (24 h), the LC10 is 0.20 µg/mL (≈ 0.691 µM). In the series on Gammarus pulex (24 h acute toxicity profile), the “LOAEL (C2)” value turned out to be 0.3 mg L^− 1 and the “NOAEL (C1)” value is reported as 0.1 mg L^− 1.

By LC50 is commonly meant the concentration lethal to half of the exposed cells or organisms.
